# Test results published in ChEMBL document CHEMBL4308841, “Synthesis, in vitro antiproliferative activity, and kinase inhibitory effects of pyrazole-containing diarylureas and diarylamides” (Eur J Med Chem, 2018).
# Tests used:
# [1] = tested on: MOLT-4; assay: Growth inhibition of human MOLT4 cells incubated for 48 hrs by sulforhodamine B assay; type: functional, cell-based; conditions: MOLT-4, 48 h
# [2] = tested on: SR; assay: Growth inhibition of human SR cells incubated for 48 hrs by sulforhodamine B assay; type: functional, cell-based
# [3] = tested on: SK-MEL-2; assay: Growth inhibition of human SK-MEL-2 cells incubated for 48 hrs by sulforhodamine B assay; type: functional, cell-based; conditions: SK-MEL-2, 48 h
# [4] = tested on: OVCAR-8; assay: Growth inhibition of human OVCAR8 cells incubated for 48 hrs by sulforhodamine B assay; type: functional, cell-based; conditions: OVCAR-8, 48 h
# [5] = tested on: CAKI-1; assay: Growth inhibition of human Caki1 cells incubated for 48 hrs by sulforhodamine B assay; type: functional, cell-based; conditions: CAKI-1, 48 h
# [6] = tested on: NCI-H226; assay: Growth inhibition of human NCI-H226 cells assessed as cell growth at 0.01 uM incubated for 48 hrs by sulforhodamine B assay relative to control; type: functional; conditions: NCI-H226, 48 h, read-out: Activity
# [7] = tested on: HCC 2998; assay: Growth inhibition of human HCC2998 cells assessed as cell growth at 0.01 uM incubated for 48 hrs by sulforhodamine B assay relative to control; type: functional; conditions: HCC 2998, 48 h, read-out: Activity
# [8] = tested on: HCT-116; assay: Growth inhibition of human HCT116 cells assessed as cell growth at 0.01 uM incubated for 48 hrs by sulforhodamine B assay relative to control; type: functional; conditions: HCT-116, 48 h, read-out: Activity
# [9] = tested on: RPMI-8226; assay: Growth inhibition of human RPMI8226 cells assessed as cell growth at 0.1 uM incubated for 48 hrs by sulforhodamine B assay relative to control; type: functional; conditions: RPMI-8226, 48 h, read-out: Activity
# [10] = tested on: NCI-H226; assay: Growth inhibition of human NCI-H226 cells assessed as cell growth at 0.1 uM incubated for 48 hrs by sulforhodamine B assay relative to control; type: functional; conditions: NCI-H226, 48 h, read-out: Activity
# [11] = tested on: U-251; assay: Growth inhibition of human U251 cells assessed as cell growth at 0.1 uM incubated for 48 hrs by sulforhodamine B assay relative to control; type: functional; conditions: U-251, 48 h, read-out: Activity
# [12] = tested on: OVCAR-5; assay: Growth inhibition of human OVCAR5 cells assessed as cell growth at 0.1 uM incubated for 48 hrs by sulforhodamine B assay relative to control; type: functional; conditions: OVCAR-5, 48 h, read-out: Activity
# [13] = tested on: RXF 393; assay: Growth inhibition of human RXF393 cells assessed as cell growth at 0.1 uM incubated for 48 hrs by sulforhodamine B assay relative to control; type: functional; conditions: RXF 393, 48 h, read-out: Activity
# [14] = tested on: BT-549; assay: Growth inhibition of human BT549 cells assessed as cell growth at 0.1 uM incubated for 48 hrs by sulforhodamine B assay relative to control; type: functional; conditions: BT-549, 48 h, read-out: Activity
# [15] = tested on: SR; assay: Growth inhibition of human SR cells assessed as cell growth at 1 uM incubated for 48 hrs by sulforhodamine B assay relative to control; type: functional; conditions: read-out: Activity
# [16] = tested on: HCC 2998; assay: Growth inhibition of human HCC2998 cells assessed as cell growth at 1 uM incubated for 48 hrs by sulforhodamine B assay relative to control; type: functional; conditions: HCC 2998, 48 h, read-out: Activity
# [17] = tested on: SF-539; assay: Growth inhibition of human SF539 cells assessed as cell growth at 1 uM incubated for 48 hrs by sulforhodamine B assay relative to control; type: functional; conditions: SF-539, 48 h, read-out: Activity
# [18] = tested on: SNB-19; assay: Growth inhibition of human SNB19 cells assessed as cell growth at 1 uM incubated for 48 hrs by sulforhodamine B assay relative to control; type: functional; conditions: SNB-19, 48 h, read-out: Activity
# [19] = tested on: M14; assay: Growth inhibition of human M14 cells assessed as cell growth at 1 uM incubated for 48 hrs by sulforhodamine B assay relative to control; type: functional; conditions: M14, 48 h, read-out: Activity
# [20] = tested on: OVCAR-3; assay: Growth inhibition of human OVCAR3 cells assessed as cell growth at 1 uM incubated for 48 hrs by sulforhodamine B assay relative to control; type: functional; conditions: OVCAR-3, 48 h, read-out: Activity
# [21] = tested on: UO-31; assay: Growth inhibition of human UO31 cells assessed as cell growth at 1 uM incubated for 48 hrs by sulforhodamine B assay relative to control; type: functional; conditions: UO-31, 48 h, read-out: Activity
# [22] = tested on: MCF7; assay: Growth inhibition of human MCF7 cells assessed as cell growth at 1 uM incubated for 48 hrs by sulforhodamine B assay relative to control; type: functional; conditions: MCF7, 48 h, read-out: Activity
# [23] = tested on: K562; assay: Growth inhibition of human K562 cells assessed as cell growth at 100 uM incubated for 48 hrs by sulforhodamine B assay relative to control; type: functional; conditions: K562, 48 h, read-out: Activity
# [24] = tested on: HCC 2998; assay: Growth inhibition of human HCC2998 cells assessed as cell growth at 100 uM incubated for 48 hrs by sulforhodamine B assay relative to control; type: functional; conditions: HCC 2998, 48 h, read-out: Activity
# [25] = tested on: MDA-MB-435; assay: Growth inhibition of human MDA-MB-435 cells assessed as cell growth at 100 uM incubated for 48 hrs by sulforhodamine B assay relative to control; type: functional; conditions: MDA-MB-435, 48 h, read-out: Activity
# [26] = tested on: A498; assay: Growth inhibition of human A498 cells assessed as cell growth at 100 uM incubated for 48 hrs by sulforhodamine B assay relative to control; type: functional; conditions: A498, 48 h, read-out: Activity
# [27] = tested on: SN12C; assay: Growth inhibition of human SN12C cells assessed as cell growth at 100 uM incubated for 48 hrs by sulforhodamine B assay relative to control; type: functional; conditions: read-out: Activity
# [28] = tested on: MCF7; assay: Growth inhibition of human MCF7 cells assessed as cell growth at 100 uM incubated for 48 hrs by sulforhodamine B assay relative to control; type: functional; conditions: MCF7, 48 h, read-out: Activity
# [29] = tested on: BT-549; assay: Growth inhibition of human BT549 cells assessed as cell growth at 100 uM incubated for 48 hrs by sulforhodamine B assay relative to control; type: functional; conditions: BT-549, 48 h, read-out: Activity
# [30] = tested on: MDA-MB-468; assay: Growth inhibition of human MDA-MB-468 cells assessed as cell growth at 100 uM incubated for 48 hrs by sulforhodamine B assay relative to control; type: functional; conditions: MDA-MB-468, 48 h, read-out: Activity
# [31] = read-out: LC50 (the source's name)
# [32] = read-out: pLC50 (the source's name) (converted)
smiles,measurement,setting,value
O=C(Nc1cccc(-n2cc(-c3ccncc3)c(-c3cc(O)cc(Cl)c3)n2)c1)c1ccc(N2CCOCC2)c(C(F)(F)F)c1,GI50,[1]; read-out: GI50,1.11 µM
same,CC50,[1]; [31],> 100 µM
same,TGI,[1]; read-out: TGI,43.6 µM
same,GI50,[1]; read-out: pGI50 (converted),1.12 µM
same,CC50,[1]; [32],> 100 µM
same,TGI,[1]; read-out: pTGI (converted),4.47 µM
same,GI50,[2]; read-out: GI50,0.338 µM
same,CC50,[2]; [31],> 100 µM
same,TGI,[2]; read-out: TGI,15.3 µM
same,GI50,[2]; read-out: pGI50 (converted),0.339 µM
same,CC50,[2]; [32],> 100 µM
same,TGI,[2]; read-out: pTGI (converted),1.82 µM
same,GI50,[3]; read-out: GI50,2.34 µM
same,CC50,[3]; [31],> 100 µM
same,TGI,[3]; read-out: TGI,13.2 µM
same,GI50,[3]; read-out: pGI50 (converted),2.34 µM
same,CC50,[3]; [32],> 100 µM
same,TGI,[3]; read-out: pTGI (converted),13.2 µM
same,GI50,[4]; read-out: GI50,15.4 µM
same,CC50,[4]; [31],> 100 µM
same,TGI,[4]; read-out: TGI,> 100 µM
same,GI50,[4]; read-out: pGI50 (converted),1.62 µM
same,CC50,[4]; [32],> 100 µM
same,TGI,[4]; read-out: pTGI (converted),> 100 µM
same,GI50,[5]; read-out: GI50,1.1 µM
same,CC50,[5]; [31],> 100 µM
same,TGI,[5]; read-out: TGI,60 µM
same,GI50,[5]; read-out: pGI50 (converted),1.1 µM
same,CC50,[5]; [32],> 100 µM
same,TGI,[5]; read-out: pTGI (converted),6.03 µM
same,growth at 0.01 µM,[6],98%
same,growth at 0.01 µM,[7],102%
same,growth at 0.01 µM,[8],102%
same,growth at 0.1 µM,[9],100%
same,growth at 0.1 µM,[10],93%
same,growth at 0.1 µM,[11],96%
same,growth at 0.1 µM,[12],90%
same,growth at 0.1 µM,[13],85%
same,growth at 0.1 µM,[14],97%
same,growth at 1 µM,[15],9%
same,growth at 1 µM,[16],70%
same,growth at 1 µM,[17],58%
same,growth at 1 µM,[18],90%
same,growth at 1 µM,[19],45%
same,growth at 1 µM,[20],99%
same,growth at 1 µM,[21],57%
same,growth at 1 µM,[22],82%
same,growth at 100 µM,[23],-24%
same,growth at 100 µM,[24],-28%
same,growth at 100 µM,[25],8%
same,growth at 100 µM,[26],-12%
same,growth at 100 µM,[27],38%
same,growth at 100 µM,[28],14%
same,growth at 100 µM,[29],17%
same,growth at 100 µM,[30],-15%
COc1cc(Cl)cc(-c2nn(-c3cccc(NC(=O)Nc4cc(C(F)(F)F)cc(C(F)(F)F)c4)c3)cc2-c2ccncc2)c1,IC50,[1],0.31 µM
same,GI50,[1]; read-out: GI50,0.306 µM
same,CC50,[1]; [31],> 100 µM
same,TGI,[1]; read-out: TGI,1.64 µM
same,GI50,[1]; read-out: pGI50 (converted),0.302 µM
same,CC50,[1]; [32],> 100 µM
same,TGI,[1]; read-out: pTGI (converted),1.62 µM
same,IC50,[2],0.45 µM
same,GI50,[2]; read-out: GI50,0.452 µM
same,CC50,[2]; [31],> 100 µM
same,TGI,[2]; read-out: TGI,3.31 µM
same,GI50,[2]; read-out: pGI50 (converted),0.447 µM
same,CC50,[2]; [32],> 100 µM
same,TGI,[2]; read-out: pTGI (converted),3.31 µM
same,IC50,[3],0.66 µM
same,GI50,[3]; read-out: GI50,0.658 µM
same,TGI,[3]; read-out: TGI,2.7 µM
same,GI50,[3]; read-out: pGI50 (converted),0.661 µM
same,CC50,[3]; [32],9.33 µM
same,TGI,[3]; read-out: pTGI (converted),2.69 µM
same,IC50,[4],0.39 µM
same,GI50,[4]; read-out: GI50,0.391 µM
same,TGI,[4]; read-out: TGI,2.19 µM
same,GI50,[4]; read-out: pGI50 (converted),0.389 µM
same,CC50,[4]; [32],47.9 µM
same,TGI,[4]; read-out: pTGI (converted),2.19 µM
same,IC50,[5],0.42 µM
same,GI50,[5]; read-out: GI50,0.42 µM
same,TGI,[5]; read-out: TGI,4.75 µM
same,GI50,[5]; read-out: pGI50 (converted),0.417 µM
same,CC50,[5]; [32],61.7 µM
same,TGI,[5]; read-out: pTGI (converted),4.79 µM
same,growth at 0.01 µM,[6],101%
same,growth at 0.01 µM,[7],95%
same,growth at 0.01 µM,[8],102%
same,growth at 0.1 µM,[9],87%
same,growth at 0.1 µM,[10],102%
same,growth at 0.1 µM,[11],91%
same,growth at 0.1 µM,[12],95%
same,growth at 0.1 µM,[13],101%
same,growth at 0.1 µM,[14],89%
same,growth at 1 µM,[15],28%
same,growth at 1 µM,[16],38%
same,growth at 1 µM,[17],59%
same,growth at 1 µM,[18],28%
same,growth at 1 µM,[19],25%
same,growth at 1 µM,[20],5%
same,growth at 1 µM,[21],15%
same,growth at 1 µM,[22],21%
same,growth at 100 µM,[23],-42%
same,growth at 100 µM,[24],-70%
same,growth at 100 µM,[25],-81%
same,growth at 100 µM,[26],-59%
same,growth at 100 µM,[27],-61%
same,growth at 100 µM,[28],-44%
same,growth at 100 µM,[29],-80%
same,growth at 100 µM,[30],-40%
